Assay results published in patent US8269000B2, “Substituted pyrimidine and triazine compounds” (Gruenenthal GmbH, priority 2008, dated 2012).

target: T1, rat B1R (Rattus norvegicus, UniProt P97583); test: FLIPR Ca2+ functional study on bradykinin receptor 1 (rB1R CHO K1 cells); assay type: cell-based; conditions: % inhibition rat B1R at 10 μM
T1 construct: expressed in transfected cells; host or cells: CHO K1 cells
T1 sequence (P97583 1-337): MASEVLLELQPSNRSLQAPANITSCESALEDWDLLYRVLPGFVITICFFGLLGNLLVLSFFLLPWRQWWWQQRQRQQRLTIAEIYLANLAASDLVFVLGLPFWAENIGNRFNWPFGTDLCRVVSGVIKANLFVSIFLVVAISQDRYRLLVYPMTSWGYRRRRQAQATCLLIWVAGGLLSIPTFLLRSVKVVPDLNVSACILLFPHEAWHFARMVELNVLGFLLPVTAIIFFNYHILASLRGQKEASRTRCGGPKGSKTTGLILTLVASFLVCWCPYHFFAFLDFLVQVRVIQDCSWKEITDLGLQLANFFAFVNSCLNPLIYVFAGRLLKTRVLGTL
Experimental: The agonistic or antagonistic activity of substances can be quantified on the bradykinin receptor 1 (B1R) of the species human and rat using ectopically expressing cell lines (CHO K1 cells) and with the aid of a Ca^2+-sensitive dye (Fluo-4) using a fluorescent imaging plate reader (FLIPR). The indication in % activation is based on the Ca^2+ signal after addition of Lys-Des-Arg^9-bradykinin (0.5 nM) or Des-Arg^9-bradykinin (100 nM). Antagonists lead to suppression of the Ca^2+ influx after the addition of the agonist. % Inhibition compared with the maximum achievable inhibition is indicated.
The agonistic or antagonistic activity of substances can be determined on the bradykinin receptor 1 (B1R) of the species human and rat using the following assay. According to this assay, the Ca^2+ influx through the channel is quantified with the aid of a Ca^2+-sensitive dye (Fluo-4 type, Molecular Probes Europe BV, Leiden, Netherlands) using a Fluorescent Imaging Plate Reader (FLIPR, Molecular Devices, Sunnyvale, USA).
Chinese hamster ovary cells (CHO K1 cells) which have been stably transfected with the human B1R gene (hB1R cells) or with the B1R gene of the rat (rB1R cells) are used. For functional studies, the cells are plated out on black 96-well plates having a clear base (BD Biosciences, Heidelberg, Germany or Greiner, Frickenhausen, Germany) in a density of 20,000-35,000 cells/well. The cells are left overnight at 37° C. and with 5% CO2 in culture medium (hB1R cells: Nutrient Mixture Ham's F12, Gibco Invitrogen GmbH, Karlsruhe, Germany or DMEM, Sigma-Aldrich, Taufkirchen, Germany; rB1R cells: D-MEM/F12, Gibco Invitrogen GmbH, Karlsruhe, Germany), with 10 vol.% FBS (fetal bovine serum, Gibco Invitrogen GmbH, Karlsruhe, Germany or PAN Biotech GmbH, Aidenbach, Germany). On the following day, the cells are loaded for 60 minutes at 37° C. with 2.13 μM Fluo-4 (Molecular Probes Europe BV, Leiden, Netherlands) in HBSS buffer (Hank's buffered saline solution, Gibco Invitrogen GmbH, Karlsruhe, Germany) […] (Sigma-Aldrich, Taufkirchen, Germany) and 10 mM HEPES (Sigma-Aldrich, Taufkirchen, Germany). The plates are then washed twice with HBSS buffer, and HBSS buffer additionally containing 0.1% BSA (bovine serum albumin; Sigma-Aldrich, Taufkirchen, Germany), 5.6 mM glucose and 0.05% gelatin (Merck KGaA, Darmstadt, Germany) is added to the plates. After incubation for a further 20 minutes at room temperature, the plates are inserted into the FLIPR for Ca^2+ measurement. Alternatively, washing is carried out with buffer A (15 mM HEPES, 80 mM NaCl, 5 mM KCl, 1.2 mM CaCl2, 0.7 mM MgSO4, 2 g/l glucose, 2.5 mM probenecid) followed by loading with buffer A with added 2.5 μM Fluo-4 and 0.025% Pluronic F127 (Sigma-Aldrich, Taufkirchen, Germany). The cells are then washed twice with buffer A and incubated for 30 minutes at room temperature with buffer A additionally containing 0.05% BSA and 0.05% gelatin and are then inserted into the FLIPR for Ca^2+ measurement. The Ca^2+-dependent fluorescence is measured before and after the addition of substances (λex=488 nm, λem=540 nm). Quantification is carried out by measuring the highest fluorescence intensity (FC, fluorescence counts) over time.
The FLIPR protocol consists of two substance additions. Test substances (10 μM) are first pipetted onto the cells and the Ca^2+ influx is compared with the control (hB1R: Lys-Des-Arg^9-bradykinin>=50 nM; rB1R: Des-Arg^9-bradykinin 10 μM). This gives the activation in %, based on the Ca^2+ signal after addition of Lys-Des-Arg^9-bradykinin (>=50 nM) or Des-Arg^9-bradykinin (10 μM). After 10-20 minutes' incubation, Lys-Des-Arg^9-bradykinin (hB1R) or Des-Arg^9-bradykinin (rB1R) is applied in the concentration of the EC80, and the influx of Ca^2+ is likewise determined. Antagonists lead to suppression of the Ca^2+ influx. The % inhibition compared with the maximum achievable inhibition is calculated. […]

Row | SMILES | % inh. (rat B1R) 10 μM [%]
1 | COc1cc(C)c(S(=O)(=O)N2CCCCC2COc2ccnc(N3CCN(CC4CCN(C)CC4)CC3)n2)c(C)c1 (stereo not drawn) [H_CC-006, 4-[[1-(4-methoxy-2,6-dimethylphenyl)sulfonyl-2-pipendinyl]methoxy]-2-[4-[(1-methyl-4-pipendinyl)methyl]-1-piperazinyl]pyrimidine] | 61
2 | COc1cc(C)c(S(=O)(=O)N2CCC[C@H]2COc2ccnc(N3CCC4(CC3)C(=O)NCN4c3ccccc3)n2)c(C)c1 [H_CC-024, 8-[4-[[(2S)-1-(4-methoxy-2,6-dimethylphenyl)sulfonyl-2-pyrrlidinyl]methoxy]-2-pyrimidinyl]-4-phenyl-2,4,8-triazaspiro[4.5]decan-1-one] | 97
3 | COc1cc(C)c(S(=O)(=O)N2c3ccccc3C[C@H]2COc2ccnc(N3CCC(N4CCN(C)CC4)CC3)n2)c(C)c1 [H_CC-018, (2S)-1-(4-methoxy-2,6-dimethylphenyl)sulfonyl-2-[[2-[4-(4-methyl-1-piperazinyl)-1-pipendinyl]-4-pyrimidinyl]oxymethyl]indoline] | 91
4 | COc1cc(C)c(S(=O)(=O)N2CCC[C@H]2COc2ccnc(N3CCN(C4CCN(C)CC4)CC3)n2)c(C)c1 [H_CC-025, 4-[[(2S)-1-(4-methoxy-2,6-dimethylphenyl)sulfonyl-2-pyrrlidinyl]methoxy]-2-[4-(1-methyl-4-piperidinyl)-1-piperazinyl]pyrimidine] | 65

same assay, conditions: CHO-K1, % inhibition rat B1R at 10 μM, read-out: % inh. (rat B1R) 10 μM

Row | SMILES | inhibition at 10 µM [%]
5 | CCCCC1(N(C)C)CCN(c2ccnc(OCCN(C)S(=O)(=O)c3c(C)cc(OC)cc3C)n2)CC1 [G_CC-089, N-[2-[4-(4-butyl-4-dimethylamino-piperidin-1-yl)-pyrimidin-2-yl]oxy-ethyl]-4-methoxy-N,2,6-trimethyl-benzenesulfonic acid amide] | 93
6 | CCCCC1(N(C)C)CCN(c2ccnc(OCC3CCCCN3S(=O)(=O)c3c(C)cc(OC)cc3C)n2)CC1 (stereo not drawn) [G_CC-069, [4-butyl-1-[2-[[1-[(4-methoxy-2,6-dimethyl-phenyl)sulfonyl]-piperidin-2-yl]-methoxy]-pyrimidin-4-yl]-piperidin-4-yl]-dimethyl-amine] | 102
7 | COc1cc(C)c(S(=O)(=O)N2CCC[C@H]2COc2ccnc(N3CCC(OCCN4CCCC4)(c4cccc(F)c4)CC3)n2)c(C)c1 [H_CC-092, 2-[4-(3-fluorophenyl)-4-(2-pyrrolidin-1-yl-ethoxy)-piperidin-1-yl]-4-[[(2S)-1-[(4-methoxy-2,6-dimethyl-phenyl)sulfonyl]-pyrrolidin-2-yl]-methoxy]-pyrimidine] | 50
8 | COc1cc(C)c(S(=O)(=O)N2CC(Oc3ccnc(N(C)CCN4CCC(c5ccccc5)(N(C)C)CC4)n3)C2)c(C)c1 [H_CC-069, 2-(4-dimethylamino-4-phenyl-piperidin-1-yl)-ethyl-[4-[1-[(4-methoxy-2,6-dimethyl-phenyl)sulfonyl]-azetidin-3-yl]oxy-pyrimidin-2-yl]-methyl-amine] | 52
9 | COc1cc(C)c(S(=O)(=O)N(C)C(COc2nccc(N3CCC(C)(N4CCOCC4)CC3)n2)c2ccccc2)c(C)c1 (stereo not drawn) [G_CC-137, 4-methoxy-N,2,6-trimethyl-N-[2-[4-(4-methyl-4-morpholin-4-yl-piperidin-1-yl)-pyrimidin-2-yl]oxy-1-phenyl-ethyl]benzenesulfonic acid amide] | 77
10 | COc1cc(C)c(S(=O)(=O)N2CCC[C@H]2COc2nccc(N3CCC(c4ccccc4)(N4CCCC4)CC3)n2)c(C)c1 [G_CC-115, 2-[[(2S)-1-[(4-methoxy-2,6-dimethyl-phenyl)sulfonyl]-pyrrolidin-2-yl]-methoxy]-4-(4-phenyl-4-pyrrolidin-1-yl-piperidin-1-yl)-pyrimidine] | 81
11 | COc1cc(C)c(S(=O)(=O)N2CCCCC2COc2ccnc(N3CCC4(CCN(Cc5ccc(F)cc5)C4=O)CC3)n2)c(C)c1 (stereo not drawn) [H_CC-030, 3-[(4-fluorophenyl)methyl]-8-[4-[[1-(4-methoxy-2,6-dimethylphenyl)sulfonyl-2-piperidinyl]methoxy]-2-pyrimidinyl]-3,8-diazaspiro[4.5]decan-4-one] | 49
12 | COc1cc(C)c(S(=O)(=O)N2CCC[C@H]2COc2ccnc(N3CCCC3Cc3ccccn3)n2)c(C)c1 (stereo partly drawn) [H_CC-088, 4-[[(2S)-1-[(4-methoxy-2,6-dimethyl-phenyl)sulfonyl]-pyrrolidin-2-yl]-methoxy]-2-[2-(pyridin-2-yl-methyl)-pyrrolidin-1-yl]-pyrimidine] | 67
13 | COc1cc(C)c(S(=O)(=O)N(C)CCOc2nccc(N3CCC4(CC3)C(=O)NCN4c3ccccc3)n2)c(C)c1 [G_CC-030, 4-methoxy-N,2,6-trimethyl-N-[2-[[4-(1-oxo-4-phenyl-2,4,8-triazaspiro[4.5]decan-8-yl)-2-pyrimidinyl]oxy]ethyl]benzenesulfonamide] | 79
14 | COc1cc(C)c(S(=O)(=O)N2CCC[C@H]2COc2nccc(N3CCC(c4nc(-c5ccncc5)no4)CC3)n2)c(C)c1 [G_CC-085, 5-[1-[2-[[(2S)-1-[(4-methoxy-2,6-dimethyl-phenyl)sulfonyl]-pyrrolidin-2-yl]-methoxy]-pyrimidin-4-yl]-piperidin-4-yl]-3-pyridin-4-yl-[1,2,4]oxadiazole] | 101
15 | CCCCC1(N(C)C)CCN(CCN(C)c2ccnc(OCCN(C)S(=O)(=O)c3c(C)cc(OC)cc3C)n2)CC1 [G_CC-120, N-[2-[4-[2-(4-butyl-4-dimethylamino-piperidin-1-yl)-ethyl-methyl-amino]-pyrimidin-2-yl]oxy-ethyl]-4-methoxy-N,2,6-trimethyl-benzenesulfonic acid amide] | 86
16 | COc1cc(C)c(S(=O)(=O)N2c3ccccc3C[C@H]2COc2nccc(N3CCC(c4cccs4)(N(C)C)CC3)n2)c(C)c1 [G_CC-125, [1-[2-[[(2S)-1-[(4-methoxy-2,6-dimethyl-phenyl)sulfonyl]-2,3-dihydro-1H-indol-2-yl]-methoxy]-pyrimidin-4-yl]-4-thiophen-2-yl-piperidin-4-yl]-dimethyl-amine] | 58
17 | COc1cc(C)c(S(=O)(=O)N2CCCCC2COc2ccnc(N3CCC(c4cccc(F)c4)(N4CCN(C)CC4)CC3)n2)c(C)c1 (stereo not drawn) [H_CC-091, 2-[4-(3-fluorophenyl)-4-(4-methyl-piperazin-1-yl)-piperidin-1-yl]-4-[[1-[(4-methoxy-2,6-dimethyl-phenyl)sulfonyl]-piperidin-2-yl]-methoxy]-pyrimidine] | 73
18 | COc1cc(C)c(S(=O)(=O)N2CCCCC2COc2nccc(N3[C@@H]4CC[C@H]3CC(Oc3cccnc3)C4)n2)c(C)c1 (stereo partly drawn) [G_CC-105, (1S,5R)-8-[2-[[1-[(4-methoxy-2,6-dimethyl-phenyl)sulfonyl]-piperidin-2-yl]-methoxy]-pyrimidin-4-yl]-3-pyridin-3-yloxy-8-azabicyclo[3.2.1]octane] | 101
